Reference: PubChem BioAssay (NCI)
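Interpolation was linear, between the two tested concentrations surrounding the appropriate level; five concentrations were tested over 48 hours in 96-well plates. TGI marks complete inhibition of growth.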

Legend:
Assay in all cases: NCI anticancer screen, dose series, 48 h
[1] = system: 786-0 renal
[2] = system: A498 renal
[3] = system: A549 NSCLC
[4] = system: ACHN renal
[5] = system: BT-549 breast
[6] = system: CAKI-1 renal
[7] = system: CCRF-CEM leukemia
[8] = system: COLO 205 colon
[9] = system: DU-145 prostate
[10] = system: EKVX NSCLC
[11] = system: HCC-2998 colon
[12] = system: HCT-116 colon
[13] = system: HCT-15 colon
[14] = system: HL-60(TB) leukemia
[15] = system: HOP-62 NSCLC
[16] = system: HOP-92 NSCLC
[17] = system: HS 578T breast
[18] = system: HT29 colon
[19] = system: IGROV1 ovarian
[20] = system: K-562 leukemia
[21] = system: KM12 colon
[22] = system: LOX IMVI melanoma
[23] = system: M14 melanoma
[24] = system: MALME-3M melanoma
[25] = system: MCF7 breast
[26] = system: MDA-MB-231 breast
[27] = system: MDA-MB-435
[28] = system: MDA-N
[29] = system: MOLT-4 leukemia
[30] = system: NCI-H23 lung
[31] = system: NCI-H460 lung
[32] = system: NCI-H522 lung
[33] = system: NCI/ADR-RES ovarian
[34] = system: OVCAR-3 ovarian
[35] = system: OVCAR-5 ovarian
[36] = system: OVCAR-8 ovarian
[37] = system: PC-3 prostate
[38] = system: RPMI-8226 leukemia
[39] = system: RXF 393 renal
[40] = system: SF-268 CNS
[41] = system: SF-295 CNS
[42] = system: SF-539 CNS
[43] = system: SK-MEL-2 melanoma
[44] = system: SK-MEL-28 melanoma
[45] = system: SK-MEL-5 melanoma
[46] = system: SK-OV-3 ovarian
[47] = system: SN12C renal
[48] = system: SNB-19 CNS
[49] = system: SNB-75 CNS
[50] = system: SR leukemia
[51] = system: SW-620 colon
[52] = system: T-47D breast
[53] = system: TK-10 renal
[54] = system: U251 CNS
[55] = system: UACC-257 melanoma
[56] = system: UACC-62 melanoma
[57] = system: UO-31 renal
[58] = system: NCI-H226 lung
[59] = system: OVCAR-4 ovarian

CC(=O)OCCOCn1cc(C=O)c2ccccc21
TGI [1]: > 100 µM | TGI [2]: 3.89 µM | TGI [3]: > 100 µM | TGI [4]: > 100 µM | TGI [5]: > 100 µM | TGI [6]: > 100 µM | TGI [7]: > 100 µM | TGI [8]: > 100 µM | TGI [9]: > 100 µM | TGI [10]: > 100 µM | TGI [11]: > 100 µM | TGI [12]: > 100 µM | TGI [13]: > 100 µM | TGI [14]: > 100 µM | TGI [15]: > 100 µM | TGI [16]: > 100 µM | TGI [17]: > 100 µM | TGI [18]: > 100 µM | TGI [19]: > 100 µM | TGI [20]: > 100 µM | TGI [21]: > 100 µM | TGI [22]: > 100 µM | TGI [23]: > 100 µM | TGI [24]: > 100 µM | TGI [25]: > 100 µM | TGI [26]: > 100 µM | TGI [27]: > 100 µM | TGI [28]: > 100 µM | TGI [29]: > 100 µM | TGI [30]: > 100 µM | TGI [31]: > 100 µM | TGI [32]: > 100 µM | TGI [33]: > 100 µM | TGI [34]: > 100 µM | TGI [35]: > 100 µM | TGI [36]: > 100 µM | TGI [37]: > 100 µM | TGI [38]: > 100 µM | TGI [39]: > 100 µM | TGI [40]: > 100 µM | TGI [41]: > 100 µM | TGI [42]: > 100 µM | TGI [43]: > 100 µM | TGI [44]: > 100 µM | TGI [45]: > 100 µM | TGI [46]: > 100 µM | TGI [47]: > 100 µM | TGI [48]: > 100 µM | TGI [49]: > 100 µM | TGI [50]: > 100 µM | TGI [51]: > 100 µM | TGI [52]: > 100 µM | TGI [53]: > 100 µM | TGI [54]: > 100 µM | TGI [55]: > 100 µM | TGI [56]: > 100 µM | TGI [57]: > 100 µM

N#Cc1c(C#N)c(SSc2c(C#N)c(C#N)c(N)n2-c2ccc(F)cc2)n(-c2ccc(F)cc2)c1N
TGI [1]: 3.22 µM | TGI [2]: 18.9 µM | TGI [3]: 36.7 µM | TGI [4]: 8.55 µM | TGI [5]: 7.2 µM | TGI [6]: 21.1 µM | TGI [7]: 4.62 µM | TGI [8]: 3.76 µM | TGI [9]: 30.6 µM | TGI [10]: 5.13 µM | TGI [11]: 45.3 µM | TGI [12]: 3.38 µM | TGI [13]: 4.25 µM | TGI [14]: 4.44 µM | TGI [15]: 33.2 µM | TGI [16]: 7.82 µM | TGI [17]: > 58.3 µM | TGI [18]: 36.5 µM | TGI [19]: 37.9 µM | TGI [21]: 44.3 µM | TGI [22]: 59.9 µM | TGI [23]: 9.07 µM | TGI [24]: 3.28 µM | TGI [25]: > 24.8 µM | TGI [26]: 37.6 µM | TGI [27]: 19.2 µM | TGI [28]: 10.8 µM | TGI [29]: 2.99 µM | TGI [58]: 46 µM | TGI [30]: 14.3 µM | TGI [31]: 41.2 µM | TGI [32]: 4.11 µM | TGI [33]: 59.4 µM | TGI [34]: 6.92 µM | TGI [59]: > 100 µM | TGI [35]: 30.9 µM | TGI [36]: 32.4 µM | TGI [37]: 33.3 µM | TGI [39]: 8.48 µM | TGI [40]: 48.2 µM | TGI [41]: 31.8 µM | TGI [42]: 35.6 µM | TGI [43]: 44 µM | TGI [44]: 19.9 µM | TGI [45]: 31.1 µM | TGI [46]: 31.4 µM | TGI [47]: 31.5 µM | TGI [48]: 42.6 µM | TGI [49]: 32.6 µM | TGI [50]: 1.98 µM | TGI [51]: 5.59 µM | TGI [52]: 7.96 µM | TGI [53]: 8.27 µM | TGI [54]: 40.1 µM | TGI [55]: 32.5 µM | TGI [56]: 31.7 µM | TGI [57]: 3.87 µM
